From publication PMC5778071, “Development of matrix metalloproteinase-targeted probes for lung inflammation detection with positron emission tomography” (Scientific Reports, 2018)
Several values for one entry are separate records, joined by “and”; a condition that tells them apart may be missing. Identical values can stand only once. One block for each compound: values may come before it.

How the values were obtained:
[1] = tested on: MMP-12; set-up: method as in PMID 25438884; conditions: fluorogenic inhibition assay; cited from earlier work
[2] = tested on: MMP-9; set-up: method as in PMID 25438884; conditions: fluorogenic inhibition assay; cited from earlier work
[3] = Ex vivo autoradiography of lung sections; type: in vivo, BALB/c mice; conditions: after PET scan; for Radioactivity accumulation in lung sections (autoradiography): 20 μm sections
Method: Following the PET experiments, the frozen lungs were cut into 20 μm thick sections with a cryomicrotome (Cryotome FSE; ThermoFisher Scientific, Tokyo, Japan). Lung sections at intervals of 100 μm (n = 2 each, 9 positions) were exposed to imaging plates (BAS-SR; GE Healthcare Japan, Tokyo, Japan) for 3 h. To quantify the signals, various concentrations of the administrated ^18F-IPFP dilutions were also plotted and exposed to imaging plates. Autoradiograms were obtained with a Typhoon FLA 7000 scanner, (GE Healthcare Japan), and the resulting images were analyzed by ImageQuant TL (GE Healthcare Japan). Radioactivities per area were determined by image analysis of the resulting autoradiograms and expressed as percent injected dose (%ID) per section calculated using the quantitation curve obtained by the ^18F-IPFP dilutions.

[4] = In vivo biodistribution study in Air and CS (COPD model) mice; set-up: species or system BALB/c mice; conditions: for Tissue radioactivity, Blood / Tissue radioactivity, Bone / Tissue radioactivity, Heart / Tissue radioactivity, Intestine / Tissue radioactivity, Kidney / Tissue radioactivity, Liver / Tissue radioactivity, Lung / Tissue radioactivity, Muscle / Tissue radioactivity, Pancreas / Tissue radioactivity, Spleen / Tissue radioactivity, Stomach: i.v.
Method: The animals were randomly divided into two groups, control air-exposed (Air, n = 18) and cigarette smoke exposed (CS, n = 18) groups. The mice in the CS group were exposed to cigarette smoke for 10 min inside an acrylic box twice a day, 4–5 times a week, for 4 months using 1 cigarette (Peace, Japan Tobacco Inc., Tokyo, Japan) for every exposure following a previous report with slight modifications. The mice in the Air group were identically exposed to air without CS in a similar box. After the CS treatment, the animals were kept under normal warm and clean environmental conditions to allow for recovery and then housed as described above.
Animals from each study group were randomly divided into 3 groups (n = 3 each) for each time point studied. Mice that were intravenously administered ^18F-IPFP (185 kBq/100 μl saline containing 0.1% tween 80) were sacrificed by cervical dislocation at 20, 45, and 90 min, and 5, 45, and 90 min after administration for the Air and CS groups, respectively. Blood was immediately collected from the heart cavity. Tissues were excised, weighed, and counted for radioactivity with an NaI well-type scintillation counter (1470 Wizard; PerkinElmer, Kanagawa, Japan).

[5] = In vivo PET imaging of lung region; set-up: species or system BALB/c mice; conditions: 50–60 min after injection
Method: PET data were acquired in list mode using a microPET Focus120 apparatus (Siemens), with a spatial resolution of 1.2 mm at the center of the field of view[24]. Animals (n = 2 per group) were placed in a prone position under 1–2% isoflurane anesthesia on a heating pad to maintain body temperature at 36–37 °C during the PET experiments. A transmission […] scan using an external ^68Ge source was acquired before the PET scan for attenuation correction. At the start of the PET scan, intravenous administration of ^18F-IPFP (4.7–8.1 MBq/100 μl saline containing 0.1% tween 80) was initiated for 15 sec followed by a 50–100 μl saline flush for 15 sec. The scan duration was 60 min. Following the PET scan, mice were immediately euthanized with an anesthesia overdose, followed by extraction of the lungs and heart. Extracted organs were placed on the PET bed and scanned for another 10 min. Thereafter, the lungs were frozen for ex vivo autoradiography analysis. Emission images were reconstructed using Fourier rebinning[25] and a maximum likelihood expectation maximization algorithm with a 128 × 128 × 95 matrix size, and a 0.43 × 0.43 × 0.80 mm^3 voxel size. The uptake of the tracer in the regions of interest was converted to the standardized uptake values (SUVs).

[6] = Air group, 20 min after injection
[7] = Air group, 45 min after injection
[8] = Air group, 90 min after injection
[9] = CS group, 5 min after injection
[10] = CS group, 45 min after injection
[11] = CS group, 90 min after injection

SMILES: CC(C)C[C@H](CC(=O)NO)C(=O)N[C@@H](Cc1ccccc1)C(=O)N[C@@H](CCCCNC(=O)c1ccc(F)cc1)C(N)=O [^18F-FB-ML5]
IC50 [1]: 138 nM
IC50 [2]: 31.5 nM

Radioactivity accumulation in lung sections (autoradiography) ([3]; Air group): 16.2 ± 2.0 × 10^−4 %ID/section
Radioactivity accumulation in lung sections (autoradiography) ([3]; CS group): 30.0 ± 3.0 × 10^−4 %ID/section
Radioactivity accumulation in lung sections, CS group vs Air group (autoradiography) [3]: 2 fold
Radioactivity accumulation in the lungs, CS group compared with Air group ([4]; 90 min after administration): > 4 fold and 4 fold
Tissue radioactivity, Blood [4, 6]: 0.5 ± 0.1 %ID/g
Tissue radioactivity, Bone [4, 6]: 0.4 ± 0.0 %ID/g
Tissue radioactivity, Heart [4, 6]: 0.5 ± 0.1 %ID/g
Tissue radioactivity, Intestine [4, 6]: 10.7 ± 2.2 %ID/g
Tissue radioactivity, Kidney [4, 6]: 37.6 ± 6.4 %ID/g
Tissue radioactivity, Liver [4, 6]: 22.6 ± 0.7 %ID/g
Tissue radioactivity, Lung [4, 6]: 5.3 ± 0.6 %ID/g
Tissue radioactivity, Muscle [4, 6]: 0.3 ± 0.1 %ID/g
Tissue radioactivity, Pancreas [4, 6]: 5.4 ± 0.7 %ID/g
Tissue radioactivity, Spleen [4, 6]: 0.9 ± 0.1 %ID/g
Tissue radioactivity, Stomach [4, 6]: 2.8 ± 2.1 % injected dose
Tissue radioactivity, Blood [4, 7]: 0.6 ± 0.0 %ID/g
Tissue radioactivity, Bone [4, 7]: 0.5 ± 0.1 %ID/g
Tissue radioactivity, Heart [4, 7]: 0.5 ± 0.0 %ID/g
Tissue radioactivity, Intestine [4, 7]: 16.9 ± 3.0 %ID/g
Tissue radioactivity, Kidney [4, 7]: 38.8 ± 4.2 %ID/g
Tissue radioactivity, Liver [4, 7]: 15.2 ± 1.6 %ID/g
Tissue radioactivity, Lung [4, 7]: 2.4 ± 0.4 %ID/g
Tissue radioactivity, Muscle [4, 7]: 0.3 ± 0.2 %ID/g
Tissue radioactivity, Pancreas [4, 7]: 4.5 ± 0.8 %ID/g
Tissue radioactivity, Spleen [4, 7]: 0.8 ± 0.1 %ID/g
Tissue radioactivity, Stomach [4, 7]: 1.5 ± 1.0 % injected dose
Tissue radioactivity, Blood [4, 8]: 0.7 ± 0.1 %ID/g
Tissue radioactivity, Bone [4, 8]: 0.7 ± 0.2 %ID/g
Tissue radioactivity, Heart [4, 8]: 0.5 ± 0.1 %ID/g
Tissue radioactivity, Intestine [4, 8]: 18.4 ± 2.1 %ID/g
Tissue radioactivity, Kidney [4, 8]: 34.6 ± 3.3 %ID/g
Tissue radioactivity, Liver [4, 8]: 11.2 ± 1.1 %ID/g
Tissue radioactivity, Lung [4, 8]: 1.3 ± 0.1 %ID/g
Tissue radioactivity, Muscle [4, 8]: 0.4 ± 0.1 %ID/g
Tissue radioactivity, Pancreas [4, 8]: 3.9 ± 0.6 %ID/g
Tissue radioactivity, Spleen [4, 8]: 0.8 ± 0.2 %ID/g
Tissue radioactivity, Stomach [4, 8]: 0.5 ± 0.2 % injected dose
Radioactivity accumulation in the lungs relative to heart, muscle and blood ([4]; COPD mice, 90 min after administration): 10 fold
Tissue radioactivity, Blood [4, 9]: 0.8 ± 0.1 %ID/g
Tissue radioactivity, Bone [4, 9]: 1.0 ± 0.3 %ID/g
Tissue radioactivity, Heart [4, 9]: 0.9 ± 0.3 %ID/g
Tissue radioactivity, Intestine [4, 9]: 6.0 ± 0.6 %ID/g
Tissue radioactivity, Kidney [4, 9]: 34.1 ± 3.6 %ID/g
Tissue radioactivity, Liver [4, 9]: 30.8 ± 4.6 %ID/g
Tissue radioactivity, Lung [4, 9]: 9.4 ± 1.9 %ID/g
Tissue radioactivity, Muscle [4, 9]: 0.6 ± 0.1 %ID/g
Tissue radioactivity, Pancreas [4, 9]: 6.2 ± 0.3 %ID/g
Tissue radioactivity, Spleen [4, 9]: 2.5 ± 0.4 %ID/g
Tissue radioactivity, Stomach [4, 9]: 1.0 ± 0.4 % injected dose
Radioactivity accumulation in the lungs relative to surrounding tissues (heart, blood, muscle) [4, 10]: > 10 fold
Tissue radioactivity, Blood [4, 10]: 0.5 ± 0.1 %ID/g
Tissue radioactivity, Bone [4, 10]: 0.6 ± 0.1 %ID/g
Tissue radioactivity, Heart [4, 10]: 0.5 ± 0.1 %ID/g
Tissue radioactivity, Intestine [4, 10]: 13.1 ± 0.3 %ID/g
Tissue radioactivity, Kidney [4, 10]: 31.7 ± 2.2 %ID/g
Tissue radioactivity, Liver [4, 10]: 17.4 ± 4.1 %ID/g
Tissue radioactivity, Lung [4, 10]: 5.6 ± 0.5 %ID/g
Tissue radioactivity, Muscle [4, 10]: 0.3 ± 0.1 %ID/g
Tissue radioactivity, Pancreas [4, 10]: 4.8 ± 0.6 %ID/g
Tissue radioactivity, Spleen [4, 10]: 1.2 ± 0.2 %ID/g
Tissue radioactivity, Stomach [4, 10]: 2.2 ± 0.2 % injected dose
Tissue radioactivity, Blood [4, 11]: 0.6 ± 0.1 %ID/g
Tissue radioactivity, Bone [4, 11]: 0.8 ± 0.2 %ID/g
Tissue radioactivity, Heart [4, 11]: 0.6 ± 0.1 %ID/g
Tissue radioactivity, Intestine [4, 11]: 15.7 ± 0.9 %ID/g
Tissue radioactivity, Kidney [4, 11]: 25.4 ± 5.2 %ID/g
Tissue radioactivity, Liver [4, 11]: 12.0 ± 1.0 %ID/g
Tissue radioactivity, Lung [4, 11]: 6.3 ± 0.3 %ID/g
Tissue radioactivity, Muscle [4, 11]: 0.3 ± 0.1 %ID/g
Tissue radioactivity, Pancreas [4, 11]: 3.9 ± 0.4 %ID/g
Tissue radioactivity, Spleen [4, 11]: 1.3 ± 0.2 %ID/g
Tissue radioactivity, Stomach [4, 11]: 1.4 ± 0.5 % injected dose
accumulation ratio of lung to liver ([4]; mouse, in vivo): > 0.5
Radioactivity uptake in the bone ([4]; over the time window, suggests absence of defluorination): low
SUV in the lung regions (PET) ([5]; Air group): 0.17
SUV in the lung regions (PET) ([5]; CS group): 0.22
SMILES: CC(C)C[C@H](CC(=O)NO)C(=O)N[C@@H](Cc1ccc(I)cc1)C(=O)N[C@@H](CCCCNC(=O)C(C)[18F])C(N)=O (stereo partly drawn) [^18F-IPFP]
